Where two headings read alike, the source gives them in different places.
What was measured:
[1] = tested on: Acinetobacter baumannii; test: MIC50/MIC90 determination and MIC against isolates of A. baumannii; format: cell-based
[2] = tested on: Pseudomonas aeruginosa; test: MIC50/MIC90 determination and MIC against isolates of P. aeruginosa; format: cell-based
[3] = tested on: Pseudomonas aeruginosa PAO1; test: Murine neutropenic thigh infection model; format: in vivo, CD-1 mice; settings: 8 h, 20 mg/kg
Procedure: Zg, Committee on Animal Research Ethics-Zagreb) in collaboration with the Croatian Competent Authority and the National Ethics Committee, granting this project a 5-year authorisation, in compliance […]
Animals: The study was performed in male, 6–7 weeks old C57BL/6 mice. Animals were housed in a temperature-controlled room (22±2°C), relative humidity 55±10%, 15–20 air changes per hour, atrificial […]
Sampling: Serial or terminal blood samples were collected into EDTA-coated tubes at the following […]
into Precellys® tubes for all animals. Additional, terminal tissue samples were taken at 1 h for the IV and IP groups. For the SC and IT groups, terminal tissue samples were further taken at 2, 4, 8 h. Urine […]
samples (3 animals) were collected into emtpy tubes and kept chilled, followed by centrifugation at 3000 rpm, 10 min, 4°C. Total urine volume was recorded. […]
(§1) reduce stress and harm arising from experimental procedures, including use of analgesia, access to wet food and additional bedding. The room temperature, relative humidity and maximum background noise were maintained according to Home Office Code of Practice. Mice were exposed to 12-hour light/dark […]
(§2) Mice were immunosuppressed using cyclophosphamide administered subcutaneously (SC) at 150 mg/kg on day minus 4 and at 100 mg/kg on day minus 1 relative to the day of infection. Following […]

[4] = tested on: Escherichia coli; test: MIC50/MIC90 determination and MIC against isolates of E. coli; format: cell-based
[5] = tested on: Klebsiella pneumoniae; test: MIC50/MIC90 determination and MIC against isolates of K. pneumoniae; format: cell-based
[6] = tested on: Escherichia coli 106-09; test: Murine peritonitis/sepsis model; format: in vivo, CD-1 female mice; settings: 40 mg/kg SC q6h
Procedure: Mice were infected IP (Figure S7). […]
as §1, §2
CFU/thigh P. aeruginosa PAO1 by intramuscular (IM) injection of 50 µL bacterial suspension into both thighs. Following infection, a single dose of carprofen was administered SC to provide pain relief.
One hour post-inoculation, one group of mice were euthanized to quantify the pre-treatment bacterial burden. […]
At eight or 25 hours post infection, mice were euthanized by overdose of pentobarbitone and death confirmed by cervical dislocation. […] The bacterial burden was quantified following overnight incubation of agar plates at 37°C. For analytical purposes, burdens from individual thighs were counted as independent […]
intravenously. Mice were observed during the study and scored 0 – 4 based on their behavior and clinical signs of discomfort and euthanized at the humane endpoint as a surrogate marker for death. […]

O=C(O)c1cn(C2CC2)c2cc(N3CCNCC3)c(F)cc2c1=O [Ciprofloxacin, ciprofloxacin]
0.125 to 0.25 µg/mL: MIC ([1]; Acinetobacter baumannii, CIP105742, isolate CIP 105742, read-out: MIC)
16 µg/mL: MIC ([1]; Acinetobacter baumannii, ATCC51432, isolate ATCC51432, read-out: MIC) | MIC ([2]; Pseudomonas aeruginosa, isolate BOR 05, read-out: MIC) | MIC ([2]; Pseudomonas aeruginosa, isolate ROU 01, read-out: MIC) | MIC ([5]; Klebsiella pneumoniae, NCTC13439, isolate NCTC13439)
–4.06 log CFU/g: Δlog CFU/g in thigh muscle [3]
1 µg/mL: MIC ([2]; Pseudomonas aeruginosa, PAO1, isolate PAO1, read-out: MIC)
4 µg/mL: MIC ([2]; Pseudomonas aeruginosa, ATCCBAA2114, isolate ATCC BAA-2114, read-out: MIC) | MIC ([2]; Pseudomonas aeruginosa, isolate CAE 02, read-out: MIC) | MIC ([5]; Klebsiella pneumoniae, NCTC13442, isolate NCTC13442)
8 µg/mL: MIC ([1]; Acinetobacter baumannii, isolate R831, read-out: MIC)
32 µg/mL: MIC ([1]; Acinetobacter baumannii, ATCCBAA1710, isolate ATCC BAA-1710, read-out: MIC) | MIC ([1]; Acinetobacter baumannii, isolate BM4454, read-out: MIC) | MIC ([1]; Acinetobacter baumannii, isolate R835, read-out: MIC)
0.063 to 0.125 µg/mL: MIC ([4]; Escherichia coli)
4 to 8 µg/mL: MIC ([1]; Acinetobacter baumannii, ATCCBAA1878, isolate ATCC BAA-1878, read-out: MIC)
0.5 µg/mL: MIC ([1]; Acinetobacter baumannii, ATCC17978, isolate ATCC17978, read-out: MIC) | MIC ([1]; Acinetobacter baumannii, ATCC19187, isolate ATCC19187, read-out: MIC) | MIC ([1]; Acinetobacter baumannii, ATCCBAA747, isolate ATCC BAA-747, read-out: MIC) | MIC ([2]; Pseudomonas aeruginosa, CIP105381, isolate CIP 105381, read-out: MIC) | MIC ([2]; Pseudomonas aeruginosa, isolate CHA, read-out: MIC) | MIC ([2]; Pseudomonas aeruginosa, isolate R2255, read-out: MIC) | MIC ([2]; Pseudomonas aeruginosa, isolate SDE 05, read-out: MIC)
> 32 µg/mL: MIC ([1]; Acinetobacter baumannii, ATCCBAA1605, isolate ATCC BAA-1605, read-out: MIC) | MIC ([1]; Acinetobacter baumannii, ATCCBAA1791, isolate ATCC BAA-1791, read-out: MIC) | MIC ([1]; Acinetobacter baumannii, ATCCBAA1795, isolate ATCC BAA-1795, read-out: MIC) | MIC ([1]; Acinetobacter baumannii, CIP107292, isolate CIP 107292, read-out: MIC) | MIC ([1]; Acinetobacter baumannii, NCTC13301, isolate NCTC13301, read-out: MIC) | MIC ([1]; Acinetobacter baumannii, isolate G478 (AYE), read-out: MIC)

C[C@@H](O)[C@H]1C(=O)N2C(C(=O)O)=C(S[C@@H]3CN[C@H](C(=O)N(C)C)C3)[C@H](C)[C@H]12 [MER, Meropenem]
–4.33 log CFU/mL: Δlog CFU/mL PF compared to SOT [6]
–2.98 log CFU/mL: Δlog CFU/mL Blood compared to SOT [6]

colistin
1 µg/mL: MIC ([4]; isolate G41 (second listing)) | MIC ([4]; isolate G487) | MIC ([4]; isolate NCTC13400) | MIC ([4]; isolate PRAA1) | MIC ([4]; isolate R996) | MIC ([5]; isolate ATCC13883) | MIC ([5]; isolate ATCC43816) | MIC ([5]; isolate ATCC BAA-1903) | MIC ([5]; isolate ATCC BAA-2470) | MIC ([5]; isolate ATCC BAA-2473) | MIC ([5]; isolate CIP 104119) | MIC ([5]; isolate Clinical Lyo-01) | MIC ([5]; isolate Clinical Lyo-02) | MIC ([5]; isolate Clinical Lyo-04) | MIC ([5]; isolate Clinical Lyo-05) | MIC ([5]; isolate G52) | MIC ([5]; isolate G197) | MIC ([5]; isolate G201) | MIC ([5]; isolate G306) | MIC ([5]; isolate NCTC13438) | MIC ([5]; isolate NCTC13442) | MIC ([5]; isolate NCTC13443) | MIC ([5]; isolate R750) | MIC ([5]; isolate R1242) | MIC ([5]; isolate R1525) | MIC ([5]; isolate R2673)
2 to 8 µg/mL: MIC ([1]; isolate G478 (AYE))
1 to 2 µg/mL: MIC ([4]; isolate ATCC BAA-2471) | MIC ([4]; isolate CIP 104103) | MIC ([4]; isolate CIP 105706) | MIC ([4]; isolate R2670)
4 µg/mL: MIC ([1]; isolate ATCC17978) | MIC ([1]; isolate ATCC19187) | MIC ([1]; isolate ATCC19606) | MIC ([1]; isolate ATCC BAA-747) | MIC ([1]; isolate ATCC BAA-1878) | MIC ([1]; isolate BM4652 (efflux mutant)) | MIC ([1]; isolate DSM 30008) | MIC ([2]; isolate BOR 04) | MIC ([2]; isolate BOR 05) | MIC ([2]; isolate CHRU LILLE VAP11) | MIC ([2]; isolate CHRU LILLE VAP65a) | MIC ([2]; isolate NANC 06) | MIC ([2]; isolate PAO1) | MIC ([2]; isolate PBI 01) | MIC ([2]; isolate PGP 02) | MIC ([2]; isolate R1541) | MIC ([2]; isolate R2254) | MIC ([2]; isolate ROU 01) | MIC ([5]; isolate ATCC BAA-2342)
8 µg/mL: MIC ([1]; isolate ATCC51432) | MIC ([1]; isolate ATCC BAA-1795) | MIC ([1]; isolate NCTC13301) | MIC ([4]; isolate NCTC13846)
4 to 8 µg/mL: MIC ([1]; isolate ATCC BAA-1710) | MIC ([1]; isolate BM4454) | MIC ([1]; isolate CIP 107292) | MIC ([1]; isolate R831) | MIC ([1]; isolate R835)
16 µg/mL: MIC ([5]; isolate CIP 104298)
2 to 4 µg/mL: MIC ([1]; isolate ATCC19003) | MIC ([2]; isolate CLI 02) | MIC ([2]; isolate TOUL 01) | MIC ([4]; isolate ATCC25922) | MIC ([4]; isolate CIP 107049) | MIC ([4]; isolate NCTC10418) | MIC ([4]; isolate NCTC13352) | MIC ([4]; isolate PRAA3) | MIC ([4]; isolate PRAA21)
64 µg/mL: MIC ([5]; isolate ATCC13883 ColR_)
2 µg/mL: MIC ([1]; isolate ATCC27224) | MIC ([1]; isolate ATCC BAA-1605) | MIC ([1]; isolate ATCC BAA-1791) | MIC ([1]; isolate CIP 105742) | MIC ([2]; isolate ATCC BAA-2114) | MIC ([2]; isolate CAE 02) | MIC ([2]; isolate CHA) | MIC ([2]; isolate CIP 105250) | MIC ([2]; isolate CIP 105381) | MIC ([2]; isolate CIP 107051) | MIC ([2]; isolate CLI 03) | MIC ([2]; isolate COL 03) | MIC ([2]; isolate DIJ 02) | MIC ([2]; isolate NANC 01) | MIC ([2]; isolate NCTC13437) | MIC ([2]; isolate PA 43) | MIC ([2]; isolate PBI 03G) | MIC ([2]; isolate PBI 07) | MIC ([2]; isolate R2255) | MIC ([2]; isolate R2256) | MIC ([2]; isolate SDE 05) | MIC ([2]; isolate STR 02) | MIC ([4]; isolate ATCC BAA-2340) | MIC ([4]; isolate ATCC BAA-2469) | MIC ([4]; isolate G38) | MIC ([4]; isolate G41 (first listing)) | MIC ([4]; isolate G260) | MIC ([4]; isolate G264) | MIC ([4]; isolate G409) | MIC ([4]; isolate G486) | MIC ([4]; isolate NCTC13441) | MIC ([4]; isolate PRAA17) | MIC ([4]; isolate PRAA18) | MIC ([4]; isolate R721) | MIC ([4]; isolate R995) | MIC ([4]; isolate R1535) | MIC ([5]; isolate ATCC BAA-1705) | MIC ([5]; isolate ATCC BAA-2472) | MIC ([5]; isolate CIP 105705) | MIC ([5]; isolate CIP 106982) | MIC ([5]; isolate Clinical Lyo-03) | MIC ([5]; isolate NCTC13439)
